# Reference: PubChem BioAssay AID1963979 (Molecular Pharmacology Branch, DTP, NCI, 2024)
# Test system: 361931-004-R-J1-PDC multicell spheroid viability
# Experiment: Anticancer human tumor 361931-004-R-J1-PDC patient-derived colon adenocarcinoma cell line growth inhibition [PI3K]
# Conditions: for IC50: curve of first compound; for viability, T/C: stronger effect = lower value
# In short: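 Three cell types, namely tumor cells, endothelial cells and mesenchymal stem cells, formed each spheroid. Combinations with four PI3K inhibitors were screened at clinically achievable concentrations decreasing by half-log, and spheroid viability was recorded.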
# [1] = second compound 0.0316 µM, first compound 0.0316 µM
# [2] = second compound 0.0316 µM, first compound 0.1 µM
# [3] = second compound 0.0316 µM, first compound 0.316 µM
# [4] = second compound 0.0316 µM, first compound 1 µM
# [5] = second compound 0.0316 µM, first compound 3.16 µM
# [6] = second compound 0.0316 µM, first compound 10 µM
# [7] = second compound 0.1 µM, first compound 0.0316 µM
# [8] = second compound 0.1 µM, first compound 0.1 µM
# [9] = second compound 0.1 µM, first compound 0.316 µM
# [10] = second compound 0.1 µM, first compound 1 µM
# [11] = second compound 0.1 µM, first compound 3.16 µM
# [12] = second compound 0.1 µM, first compound 10 µM
# [13] = second compound 0.316 µM, first compound 0.0316 µM
# [14] = second compound 0.316 µM, first compound 0.1 µM
# [15] = second compound 0.316 µM, first compound 0.316 µM
# [16] = second compound 0.316 µM, first compound 1 µM
# [17] = second compound 0.316 µM, first compound 3.16 µM
# [18] = second compound 0.316 µM, first compound 10 µM
# [19] = second compound 1 µM, first compound 0.0316 µM
# [20] = second compound 1 µM, first compound 0.1 µM
# [21] = second compound 1 µM, first compound 0.316 µM
# [22] = second compound 1 µM, first compound 1 µM
# [23] = second compound 1 µM, first compound 3.16 µM
# [24] = second compound 1 µM, first compound 10 µM
# [25] = second compound 0.00316 µM, first compound 0.0316 µM
# [26] = second compound 0.00316 µM, first compound 0.1 µM
# [27] = second compound 0.00316 µM, first compound 0.316 µM
# [28] = second compound 0.00316 µM, first compound 1 µM
# [29] = second compound 0.00316 µM, first compound 3.16 µM
# [30] = second compound 0.00316 µM, first compound 10 µM
# [31] = second compound 0.01 µM, first compound 0.0316 µM
# [32] = second compound 0.01 µM, first compound 0.1 µM
# [33] = second compound 0.01 µM, first compound 0.316 µM
# [34] = second compound 0.01 µM, first compound 1 µM
# [35] = second compound 0.01 µM, first compound 3.16 µM
# [36] = second compound 0.01 µM, first compound 10 µM
# 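Also: spheroids exposed to agents for seven days before readout.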
structure (smiles),measurement,setting,value
CNC(=O)c1ccc(N2C(=S)N(c3ccc(C#N)c(C(F)(F)F)c3)C(=O)C2(C)C)cc1F + Cc1nc(NC(=O)N2CCCC2C(N)=O)sc1-c1ccnc(C(C)(C)C(F)(F)F)c1,IC50,second compound 0.0316 µM,> 10 µM
same,IC50,second compound 0.1 µM,> 10 µM
same,IC50,second compound 0.316 µM,> 10 µM
same,IC50,second compound 1 µM,> 10 µM
same,IC50,second compound 3.16 µM,> 10 µM
same,IC50,second compound 10 µM,> 10 µM
same,"viability, T/C",[1],113%
same,"viability, T/C",[2],101%
same,"viability, T/C",[3],91%
same,"viability, T/C",[4],90.8%
same,"viability, T/C",[5],98%
same,"viability, T/C",[6],99.6%
same,"viability, T/C",[7],106%
same,"viability, T/C",[8],101%
same,"viability, T/C",[9],87.4%
same,"viability, T/C",[10],94.4%
same,"viability, T/C",[11],93.3%
same,"viability, T/C",[12],86.6%
same,"viability, T/C",[13],99.2%
same,"viability, T/C",[14],90.8%
same,"viability, T/C",[15],100%
same,"viability, T/C",[16],104%
same,"viability, T/C",[17],104%
same,"viability, T/C",[18],95.8%
same,"viability, T/C",[19],94.1%
same,"viability, T/C",[20],93.5%
same,"viability, T/C",[21],80%
same,"viability, T/C",[22],94.5%
same,"viability, T/C",[23],94.1%
same,"viability, T/C",[24],85.6%
same,"viability, T/C","second compound 3.16 µM, first compound 0.0316 µM",83.2%
same,"viability, T/C","second compound 3.16 µM, first compound 0.1 µM",82.9%
same,"viability, T/C","second compound 3.16 µM, first compound 0.316 µM",91.3%
same,"viability, T/C","second compound 3.16 µM, first compound 1 µM",84.2%
same,"viability, T/C","second compound 3.16 µM, first compound 3.16 µM",98%
same,"viability, T/C","second compound 3.16 µM, first compound 10 µM",70.3%
same,"viability, T/C","second compound 10 µM, first compound 0.0316 µM",70.2%
same,"viability, T/C","second compound 10 µM, first compound 0.1 µM",67.1%
same,"viability, T/C","second compound 10 µM, first compound 0.316 µM",59.3%
same,"viability, T/C","second compound 10 µM, first compound 1 µM",69.1%
same,"viability, T/C","second compound 10 µM, first compound 3.16 µM",76.1%
same,"viability, T/C","second compound 10 µM, first compound 10 µM",45.2%
CC1(C)CCC(Nc2ncc(C(F)(F)F)c(-c3c[nH]c4c(P(C)(C)=O)c(C#N)ccc34)n2)CN1 (stereo not drawn) + COc1c(OCCCN2CCOCC2)ccc2c3n(c(=NC(=O)c4cnc(N)nc4)nc12)CCN3,IC50,second compound 0.00316 µM,5.54 µM
same,IC50,second compound 0.01 µM,4.87 µM
same,IC50,second compound 0.0316 µM,4.49 µM
same,IC50,second compound 0.1 µM,3.68 µM
same,IC50,second compound 0.316 µM,< 0.0316 µM
same,IC50,second compound 1 µM,< 0.0316 µM
same,"viability, T/C",[25],85.5%
same,"viability, T/C",[26],94.7%
same,"viability, T/C",[27],83.8%
same,"viability, T/C",[28],92.7%
same,"viability, T/C",[29],85.1%
same,"viability, T/C",[30],12.9%
same,"viability, T/C",[31],92.4%
same,"viability, T/C",[32],92.7%
same,"viability, T/C",[33],82%
same,"viability, T/C",[34],83.1%
same,"viability, T/C",[35],73.6%
same,"viability, T/C",[36],12.7%
same,"viability, T/C",[1],80.7%
same,"viability, T/C",[2],72.5%
same,"viability, T/C",[3],67.7%
same,"viability, T/C",[4],66.3%
same,"viability, T/C",[5],67.1%
same,"viability, T/C",[6],12%
same,"viability, T/C",[7],63.4%
same,"viability, T/C",[8],56.6%
same,"viability, T/C",[9],59.3%
same,"viability, T/C",[10],51.6%
same,"viability, T/C",[11],56.6%
same,"viability, T/C",[12],8.34%
same,"viability, T/C",[13],39.4%
same,"viability, T/C",[14],49.5%
same,"viability, T/C",[15],43.8%
same,"viability, T/C",[16],44.2%
same,"viability, T/C",[17],42.6%
same,"viability, T/C",[18],5.6%
same,"viability, T/C",[19],20.4%
same,"viability, T/C",[20],18.4%
same,"viability, T/C",[21],19.9%
same,"viability, T/C",[22],24.3%
same,"viability, T/C",[23],19.9%
same,"viability, T/C",[24],2.05%
Cn1nccc1Nc1nccc(-c2ccn(C(CO)c3ccc(Cl)c(F)c3)c(=O)c2)n1 (stereo not drawn) + COc1c(OCCCN2CCOCC2)ccc2c3n(c(=NC(=O)c4cnc(N)nc4)nc12)CCN3,IC50,second compound 0.00316 µM,9.03 µM
same,IC50,second compound 0.01 µM,4.53 µM
same,IC50,second compound 0.0316 µM,1.49 µM
same,IC50,second compound 0.1 µM,0.45 µM
same,IC50,second compound 0.316 µM,0.0325 µM
same,IC50,second compound 1 µM,< 0.0316 µM
same,"viability, T/C",[25],92.5%
same,"viability, T/C",[26],98.3%
same,"viability, T/C",[27],90.9%
same,"viability, T/C",[28],86.3%
same,"viability, T/C",[29],77%
same,"viability, T/C",[30],47.2%
same,"viability, T/C",[31],87.9%
same,"viability, T/C",[32],94.4%
same,"viability, T/C",[33],88.7%
same,"viability, T/C",[34],80.8%
same,"viability, T/C",[35],59.9%
same,"viability, T/C",[36],28.6%
same,"viability, T/C",[1],92%
same,"viability, T/C",[2],87.7%
same,"viability, T/C",[3],77.4%
same,"viability, T/C",[4],64%
same,"viability, T/C",[5],27.9%
same,"viability, T/C",[6],12.6%
same,"viability, T/C",[7],80.8%
same,"viability, T/C",[8],72.3%
same,"viability, T/C",[9],58.3%
same,"viability, T/C",[10],32.8%
same,"viability, T/C",[11],8.5%
same,"viability, T/C",[12],3.74%
same,"viability, T/C",[13],50.8%
same,"viability, T/C",[14],40.2%
same,"viability, T/C",[15],26.1%
same,"viability, T/C",[16],8.67%
same,"viability, T/C",[17],2.32%
same,"viability, T/C",[18],2.04%
same,"viability, T/C",[19],18.4%
same,"viability, T/C",[20],13.3%
same,"viability, T/C",[21],8.6%
same,"viability, T/C",[22],2.23%
same,"viability, T/C",[23],1.89%
same,"viability, T/C",[24],1.61%
CC(=O)c1c(C)c2cnc(Nc3ccc(N4CCNCC4)cn3)nc2n(C2CCCC2)c1=O + COc1c(OCCCN2CCOCC2)ccc2c3n(c(=NC(=O)c4cnc(N)nc4)nc12)CCN3,IC50,second compound 0.00316 µM,> 0.1 µM
same,IC50,second compound 0.01 µM,> 0.1 µM
same,IC50,second compound 0.0316 µM,> 0.1 µM
same,IC50,second compound 0.1 µM,> 0.1 µM
same,IC50,second compound 0.316 µM,< 0.000316 µM
same,IC50,second compound 1 µM,< 0.000316 µM
same,"viability, T/C","second compound 0.00316 µM, first compound 0.000316 µM",99.6%
same,"viability, T/C","second compound 0.00316 µM, first compound 0.001 µM",98.4%
same,"viability, T/C","second compound 0.00316 µM, first compound 0.00316 µM",99.8%
same,"viability, T/C","second compound 0.00316 µM, first compound 0.01 µM",97%
same,"viability, T/C",[25],101%
same,"viability, T/C",[26],89.2%
same,"viability, T/C","second compound 0.01 µM, first compound 0.000316 µM",101%
same,"viability, T/C","second compound 0.01 µM, first compound 0.001 µM",98.8%
same,"viability, T/C","second compound 0.01 µM, first compound 0.00316 µM",103%
same,"viability, T/C","second compound 0.01 µM, first compound 0.01 µM",91.5%
same,"viability, T/C",[31],95.4%
same,"viability, T/C",[32],83.4%
same,"viability, T/C","second compound 0.0316 µM, first compound 0.000316 µM",93.3%
same,"viability, T/C","second compound 0.0316 µM, first compound 0.001 µM",89.3%
same,"viability, T/C","second compound 0.0316 µM, first compound 0.00316 µM",93.3%
same,"viability, T/C","second compound 0.0316 µM, first compound 0.01 µM",87.4%
same,"viability, T/C",[1],83.8%
same,"viability, T/C",[2],62.9%
same,"viability, T/C","second compound 0.1 µM, first compound 0.000316 µM",84.1%
same,"viability, T/C","second compound 0.1 µM, first compound 0.001 µM",69.7%
same,"viability, T/C","second compound 0.1 µM, first compound 0.00316 µM",73.7%
same,"viability, T/C","second compound 0.1 µM, first compound 0.01 µM",72.8%
same,"viability, T/C",[7],67.9%
same,"viability, T/C",[8],53.1%
same,"viability, T/C","second compound 0.316 µM, first compound 0.000316 µM",50.7%
same,"viability, T/C","second compound 0.316 µM, first compound 0.001 µM",45.7%
same,"viability, T/C","second compound 0.316 µM, first compound 0.00316 µM",42.3%
same,"viability, T/C","second compound 0.316 µM, first compound 0.01 µM",41.8%
same,"viability, T/C",[13],49.6%
same,"viability, T/C",[14],38.1%
same,"viability, T/C","second compound 1 µM, first compound 0.000316 µM",23.1%
same,"viability, T/C","second compound 1 µM, first compound 0.001 µM",17.9%
same,"viability, T/C","second compound 1 µM, first compound 0.00316 µM",16.4%
same,"viability, T/C","second compound 1 µM, first compound 0.01 µM",19.7%
same,"viability, T/C",[19],21%
same,"viability, T/C",[20],15.2%
CC(C)NCC(C(=O)N1CCN(c2ncnc3c2C(C)CC3O)CC1)c1ccc(Cl)cc1 (stereo not drawn),"viability, T/C",compound 0.0316 µM,97.8% [middle of 4 runs]
same,"viability, T/C",compound 0.1 µM,99.3% [middle of 4 runs]
same,"viability, T/C",compound 0.316 µM,94.3% [middle of 4 runs]
same,"viability, T/C",compound 3.16 µM,48.7% [middle of 4 runs]
same,"viability, T/C",compound 10 µM,31.1% [middle of 4 runs]
